Biological target: GSK-3 (Homo sapiens, UniProt P49841)
Assay: GSK-3 inhibition, cell-free 33P-ATP peptide substrate SPA assay
Type: biochemical
Conditions: read-out: inhibitory activity against GSK-3, expressed as IC50
Protocol: The specific activity of a compound, stereoisomer, or prodrug of formula (I) in inhibiting GSK-3 can be determined in both cell-free and cell-based assays, both of which have been previously described in the relevant art. See, for example, U.S. Pat. Nos. 6,417,185 and 6,489,344, the disclosures of which are incorporated herein by reference in their entirety.
A cell-free assay can be generally carried out by incubating GSK-3 with a peptide substrate, radiolabeled ATP (e.g., for example, γ^33P- or γ^32P-ATP, both of which are available from Amersham; Arlington Heights, Ill.), magnesium ions, and the compound to be assayed. […] The amount of γ^33P or […] remaining in each well after washing is then quantified to determine the amount of radiolabeled phosphate incorporated into the peptide substrate. […]
Another example of a GSK-3 assay, similar to the one described hereinabove, is as follows: enzyme activities are assayed as the incorporation of ^33P from gamma phosphate of ^33P-ATP (Amersham; Arlington Heights, Ill.; catalog #AH-9968) into biotinylated peptide substrate PKTP-KKAKKL. […] The final concentration of ATP is 0.5 μM (final specific radioactivity of […]), and the final concentration of substrate is 0.75 μM. […] Radioactivity associated with the beads is then quantified by scintillation counting. […]

GSK-3, sequence (P49841 whole entry): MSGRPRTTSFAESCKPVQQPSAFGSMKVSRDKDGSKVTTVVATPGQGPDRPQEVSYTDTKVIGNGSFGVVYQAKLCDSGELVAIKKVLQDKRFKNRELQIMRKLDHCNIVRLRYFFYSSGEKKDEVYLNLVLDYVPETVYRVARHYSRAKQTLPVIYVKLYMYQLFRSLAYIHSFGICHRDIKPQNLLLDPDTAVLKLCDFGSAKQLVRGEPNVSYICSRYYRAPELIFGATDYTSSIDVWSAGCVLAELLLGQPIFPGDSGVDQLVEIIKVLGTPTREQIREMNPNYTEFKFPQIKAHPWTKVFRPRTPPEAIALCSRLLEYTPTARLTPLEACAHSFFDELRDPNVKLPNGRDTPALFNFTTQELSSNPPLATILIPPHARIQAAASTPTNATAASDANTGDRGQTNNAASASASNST

IC50: 6.5 nM
SMILES: COc1nccc(C2CC(=O)Nc3n[nH]c(C4CCC4)c32)n1 (stereo not shown) [Example 45, 3-Cyclobutyl-4-(2-methoxy-pyrimidin-4-yl)-2,4,5,7-tetrahydro-pyrazolo[3,4-b]pyridin-6-one]
